# Reference: patent US20100189798A1, “CONTROL OF ERWINIA AMYLOVORA WITH VINYLGLYCINES AND BACTERIA THAT PRODUCE VINYLGLYCINES” (The State of Oregon acting by and through the State Board …, priority 2009, published 2010)
# Assays:
# [1] = tested on: Erwinia amylovora; assay: Erwinia bioassay: culture filtrates or test solutions in agar well, zone of inhibition; format: cell-based; conditions: 300 μL per well, 28° C., 48 hours
# Description: Assays of Culture Filtrates, Live Bacteria, and FVG-Analogs for Antibiosis Activity against Erwinia amylovora and Other Bacterial Species and Strains: The potential antibiosis activities of various P. fluorescens isolates, their culture filtrates, and the FVG analogs prepared as described above were tested against Erwinia amylovora and a number of other bacterial species and strains listed in Table 4. For this purpose, cryovial stocks of the test organisms (including P. fluorescens lines from the stocks described above) were prepared from bacterial cultures grown in LB liquid medium. For this specific experimental purpose, aliquots of these cultures were stored in cryovials at −80° C. in LB medium containing glycerol at a final concentration of 15% (v/v).
# Bacterial lawns of test organisms were prepared from cells grown by inoculating 10 μL of the 15% glycerol stocks into 5 mL of liquid LB Medium. The cells were allowed to multiply overnight at 28° C. with shaking (200 rpm). The resulting bacterial suspension was adjusted with water to an optical density of 0.2 at 600 nm (Spectronic® 20 Spectrophotometer; Milton Roy Co., Rochester N.Y.). 300 μL aliquots of the diluted suspension were spread onto the agar surfaces of Petri plates (100×15 mm) containing […] of 925 Minimal Medium (prepared and amended as described below). […]
# [2] = tested on: seeds of grassy weeds; conditions: as disclosed in U.S. patent application Ser. No. 12/567,590; cited from earlier work
# [3] = as described in U.S. patent application Ser. No. 12/567,590; cited from earlier work
compound,measurement,setting,value
"NOCC(=O)O [AOA, 2-aminooxyacetic acid]",Growth inhibition of E. amylovora (in words),"[1]; AOA solution, pH 6.4",effective growth inhibitor
"NCCOC=CC(N)C(=O)O (stereo not shown) [AVG, 2-amino-4-aminoethoxybut-3-enoic acid]",Inhibitory effect on growth of E. amylovora (in words),"[1]; commercial sample of pure AVG-HCl, 3 mM",inhibitory effect of AVG on E. amylovora has subsequently been confirmed
"NC(C=CONC=O)C(=O)O (stereo not shown) [FVG, 2-amino-4-formylaminooxybut-3-enoic acid]",Germination arrest in the seeds of grassy weeds (in words),[2],ability to produce germination arrest
same,Solubility in organic solvents (in words),[3],insoluble or sparingly soluble in organic solvents
